Measured values taken from paper PMC4104029, “Mechanism of Action of Compound-13: An α1-Selective Small Molecule Activator of AMPK” (Chemistry & Biology, 2014).

Tests used:
[1] = test system: LKB1−/− mouse embryonic fibroblasts; assay: AMPK and ACC phosphorylation in LKB1-null fibroblasts; type: cell-based; details: 1 hr; AICAR 2 mM
Method: AICAR (0.5 mM) was included as a positive control. Cell lysates were analyzed using western blotting with the indicated antibodies. (B) AMPKα1 or AMPKα2 complexes were immunoprecipitated from hepatocyte extracts prepared as described in (A) and assayed for kinase activity using 0.2 mM AMARA and 0.1 mM ATP. Results are expressed as the mean Pi incorporated in picomoles per minute-milligram ± SD. (C) Hepatocytes were stimulated with 30 μM C13 for the indicated times prior to harvesting, with AICAR (0.5 mM, 1 hr) as positive control. Lysates were analyzed using western blotting with the indicated antibodies. (D) Mouse hepatocytes were treated with the indicated compounds for 1 hr, and adenine nucleotide ratios were determined using capillary electrophoresis of perchloric acid extracts. […] Lysates were analyzed using western blotting with the indicated antibodies. (F) Wild-type (LKB1^+/+) or LKB1-null (LKB1^−/−) mouse embryonic fibroblasts were incubated with the indicated concentrations of C13 for 1 hr. AICAR (2 mM) was included as a positive control. Lysates were analyzed using western blotting with the indicated antibodies.

mouse hepatocytes = assay: Adenine nucleotide ratios by capillary electrophoresis; type: cell-based; details: 1 hr; C13 up to 100 μM
Method: (§1) Figure 4 The C2 Prodrug, C13, Potently Activates AMPK in Mouse Primary Hepatocytes (A) Isolated mouse hepatocytes were incubated with vehicle or the indicated concentrations of C13 for 1 hr. AICAR (0.5 mM) was included as a positive control. Cell lysates were analyzed using western blotting with the indicated antibodies. (B) AMPKα1 or AMPKα2 complexes were immunoprecipitated from hepatocyte extracts prepared as described in (A) and assayed for kinase activity using 0.2 mM AMARA and 0.1 mM ATP. Results are expressed as the mean Pi incorporated in picomoles per minute-milligram ± SD. (C) Hepatocytes were stimulated with 30 μM C13 for the indicated times prior to harvesting, with AICAR (0.5 mM, 1 hr) as positive control. Lysates were analyzed using western blotting with the indicated antibodies. (D) Mouse hepatocytes were treated with the indicated compounds for 1 hr, and adenine nucleotide ratios were determined using capillary electrophoresis of perchloric acid extracts. (E) Mouse hepatocytes were preincubated with 30 μM STO-609 for 30 min prior to stimulation with 30 μM C13 for 1 hr or with 1 μM ionomycin for 30 min. Lysates were analyzed using western blotting with the indicated antibodies. (F) Wild-type (LKB1^+/+) or LKB1-null (LKB1^−/−) mouse embryonic fibroblasts were incubated with the indicated concentrations of C13 for 1 hr. AICAR (2 mM) was included as a positive control. Lysates were analyzed using western blotting with the indicated antibodies. Results are representative of three independent experiments. […]
Isolation of primary hepatocytes. Hepatocytes were isolated from fasted mice by collagenase digestion (Berry and Friend, 1969). Cells were seeded in M199 containing 100 U/ml penicillin G, 100 µg/ml streptomycin, 0.1 % (w/v) BSA, 10 % (v/v) FBS, 10 nM insulin, 200 nM triiodothyronine and 100 nM dexamethasone. […]
Nucleotide measurements. […] Nucleotides were separated and quantified by capillary electrophoresis using a Beckman P/ACE instrument as previously described (Hawley, et al., 2010).

β1-KO hepatocytes [2] = assay: Lipogenesis, [3H]acetate incorporation into total lipids; type: cell-based, mouse; details: 100 μM, 4 hr
Method: (§2) Figure 7 C13 Activates Both β1 and β2 Complexes in Mouse Hepatocytes (A) Hepatocytes from WT, AMPKβ1^−/−, and AMPKβ2^−/− mice were incubated with the indicated concentrations of C13 for 1 hr. A769662 (100 μM) was included as a positive control. Lysates were analyzed using western blotting with the indicated antibodies. (B) Mouse hepatocytes from the indicated genotypes were treated with the indicated concentrations of C13 and labeled with [^3H]acetate for 4 hr. Lipogenesis was estimated from the incorporation of acetate into total lipids. Results are expressed as the mean acetate incorporated in micromoles per gram-hour ± SD.
Lipid synthesis was determined by labeling adherent cultures of primary hepatocytes with [1-^14C]acetate. After overnight culture, hepatocytes (5 × 10^5) were washed with warm PBS and allowed to rest for 3 hr in fresh M199. Cells were treated with vehicle (0.1% DMSO) or the indicated compounds and labeled with 1 mCi⋅mmol^−1 [1-^14C]acetate for 3 hr. […] Lipogenesis in hepatocytes from AMPKβ1/β2-KO mice was determined in media containing [^3H]acetate (0.2 mCi⋅mmol^−1). After 4 hr labeling, total lipids were extracted using the method of [Bligh and Dyer (1959)], and incorporated [^3H] was determined by scintillation counting. The results are expressed as micromoles acetate incorporated per gram-hour.

β1-KO hepatocytes [3] = assay: AMPK signaling, western blotting; type: cell-based, mouse; details: 1 hr; A769662 100 μM
Method: as §2

WT and β2-KO hepatocytes = assay: AMPK signaling, western blotting; type: cell-based, mouse; details: 1 hr; A769662 100 μM
Method: as §2

AMPK α1β1γ1 = biological target: T1, AMPK α1β1γ1 (Homo sapiens, UniProt P54619+Q13131); assay: AMPK phosphotransferase assay, allosteric activation, cell-free; type: biochemical; details: 1 μM C2, ADP 0–200 μM
T1 construct: purchased Sigma and Signalchem; host or cells: Spodoptera frugiperda (Sf9)
T1 sequence (Q13131 whole entry): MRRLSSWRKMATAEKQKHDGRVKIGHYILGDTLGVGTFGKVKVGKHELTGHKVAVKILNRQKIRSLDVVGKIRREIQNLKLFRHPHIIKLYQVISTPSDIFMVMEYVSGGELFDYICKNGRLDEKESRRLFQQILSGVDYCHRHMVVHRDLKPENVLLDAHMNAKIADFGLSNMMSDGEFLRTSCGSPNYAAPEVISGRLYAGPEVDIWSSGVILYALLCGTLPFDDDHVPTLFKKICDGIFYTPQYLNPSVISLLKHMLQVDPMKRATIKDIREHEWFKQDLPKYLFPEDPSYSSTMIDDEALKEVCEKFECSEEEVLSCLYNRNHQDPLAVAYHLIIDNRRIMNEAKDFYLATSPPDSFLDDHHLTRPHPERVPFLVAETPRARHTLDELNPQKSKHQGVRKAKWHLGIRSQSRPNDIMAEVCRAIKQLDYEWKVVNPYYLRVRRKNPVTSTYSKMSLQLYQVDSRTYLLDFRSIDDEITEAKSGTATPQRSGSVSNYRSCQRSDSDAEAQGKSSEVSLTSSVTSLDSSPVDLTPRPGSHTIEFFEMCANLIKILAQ
T1 sequence (Q9Y478 whole entry partner): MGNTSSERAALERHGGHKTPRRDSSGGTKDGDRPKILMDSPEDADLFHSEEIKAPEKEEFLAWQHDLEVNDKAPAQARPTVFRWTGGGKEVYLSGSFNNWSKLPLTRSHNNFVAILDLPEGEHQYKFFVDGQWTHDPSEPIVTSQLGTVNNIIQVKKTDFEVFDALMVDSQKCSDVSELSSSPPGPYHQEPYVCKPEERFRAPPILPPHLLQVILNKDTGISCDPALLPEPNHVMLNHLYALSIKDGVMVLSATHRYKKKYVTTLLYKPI
T1 sequence (P54619 whole entry): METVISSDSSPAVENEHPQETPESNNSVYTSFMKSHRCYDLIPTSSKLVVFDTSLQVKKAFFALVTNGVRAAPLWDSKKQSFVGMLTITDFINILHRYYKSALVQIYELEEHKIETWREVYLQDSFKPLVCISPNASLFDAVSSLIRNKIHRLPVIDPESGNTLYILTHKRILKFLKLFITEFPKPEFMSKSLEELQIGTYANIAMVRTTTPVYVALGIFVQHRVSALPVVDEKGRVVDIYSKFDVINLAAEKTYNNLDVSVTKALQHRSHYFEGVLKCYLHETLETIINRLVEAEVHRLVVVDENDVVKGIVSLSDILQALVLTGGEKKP
Method: Figure 1 The AMP Analog C2 Is a Potent AMPK Activator in Cell-Free Assays with Selectivity for α1 Complexes (A) The structure of the endogenous activator of AMPK, AMP; the AMP mimetic, C2; and the classical AMP mimetic, ZMP, and other AMPK activators are shown. […] (B) Recombinant AMPK complexes (α1β1γ1, α2β1γ1, α1β1γ2, and α1β2γ1) expressed in Spodoptera frugiperda were assayed for allosteric activation by AMP or C2. Results are expressed as the increase in activity relative to controls without ligand and represent the mean ± SD for three independent experiments. (C) Enzymes allosterically regulated by AMP (PFK1 and FBP1) or using AMP as a substrate (AMPD1, AK, and 5′-NT) were assayed in the presence of C2 (≤ 100 μM). Enzymes allosterically regulated by AMP were screened for both agonism and antagonism, the latter in the presence of AMP at ≈ EC50. All enzymes were unaffected by [C2] ≤ 100 μM. Representative data are shown for the effects of AMP and C2 on PFK1 and FBP1 activity. Results are representative of three independent experiments conducted on one enzyme preparation. TEXT PRINTED IN THE PICTURE: (B) C2: α1β1γ1: EC50: 0.011 ± 0.001 μM; α2β1γ1: EC50: 0.015 ± 0.003 μM; α1β1γ2: EC50: 0.024 ± 0.004 μM; α1β2γ1: EC50: 0.015 ± 0.002 μM | (B) AMP: α1β1γ1: EC50: 3.7 ± 0.6 μM; α2β1γ1: EC50: 3.2 ± 0.2 μM; α1β1γ2: EC50: 2.5 ± 0.3 μM; α1β2γ1: EC50: 3.2 ± 0.4 μM | (C) C2: PFK1: EC50: ND; FBP1: IC50: ND | (C) AMP: PFK1: EC50: 33 ± 3 μM; FBP1: IC50: 5 ± 0.2 μM […]
We initially compared the ability of C2 and AMP to activate various recombinant human AMPK complexes, expressed in insect cells, in cell-free assays (Figure 1B). As reported previously using rat liver complexes separated by immunoprecipitation ([Salt et al., 1998]), the allosteric activation of α1 complexes by AMP was less than that of α2 complexes. […] Similar results were obtained with other permutations of β and γ subunits in complex with α2 (data not shown). We also tested the effects of C2 and AMP on recombinant human α1β1γ1 and α2β1γ1 complexes expressed in E. coli and obtained similar results (data not shown).
AMPK phosphotransferase activity was assayed in reactions (50 μl) containing 50 mM HEPES, pH 7.4, 10 mM MgCl2, 0.1 mM EGTA, 1 mM DTT, 0.01% BRIJ-35, 100 μM [γ-^32P]ATP (∼250 CPM⋅pmol^−1) and 200 μM AMARA (AMARAASAAALARRR). Reactions were started by the addition of AMPK (5 mU), incubated for 20 min at 30°C and quenched by spotting onto P81 and immersion in 75 mM H3PO4. Washed filters were dried and [^32P] incorporation determined by Cherenkov counting. AMPK activity in cell extracts was determined by immunoprecipitation with AMPKα1 or AMPKα2 antibodies from 50 μg material, as previously described ([Hunter et al., 2011]). […]

[4] = test system: AMPK signaling in mouse primary hepatocytes; assay: AMPK signaling in primary hepatocytes, western blotting; type: cell-based; details: 30 μM STO-609 for 30 min, 1 μM ionomycin
Method: as §1
Isolation of primary hepatocytes. Hepatocytes were isolated from fasted mice by collagenase digestion (Berry and Friend, 1969). Cells were seeded in M199 containing 100 U/ml penicillin G, 100 µg/ml streptomycin, 0.1 % (w/v) BSA, 10 % (v/v) FBS, 10 nM insulin, 200 nM triiodothyronine and 100 nM dexamethasone. Post attachment (3-4 h), cells were cultured overnight in M199 supplemented with antibiotics and 100 nM dexamethasone and used for experiments the following morning.
Western blotting. Cells were stimulated as indicated, rinsed with ice-cold PBS and lysed with 50 mM tris pH 7.5, 1 mM EDTA, 1 mM EGTA, 0.27 M sucrose, 1 % (w/v) Triton X-100, 20 mM glycerol-2-phosphate, 50 mM NaF, 5 mM Na4P2O7, 1 mM Na3VO4, 1 mM DTT, 0.5 mM PMSF, 1 mM benzamidine and 1 µM microcystin-LR. Lysates were clarified at 3000 g for 5 min at 4 °C and normalised using Bradford reagent and BSA as standard. Lysates (20 µg) were denatured in Laemlli buffer, separated on 7.5 % tris-glycine gels and transferred to PVDF in Towbin buffer. Membranes were blocked in 5 % (w/v) milk for 1 h at RT and incubated overnight in the indicated primary antibodies at 4 °C. Membranes were developed using HRP-conjugated antibodies and ECL reagent.
Nucleotide measurements. Cultured hepatocytes were incubated with the indicated compounds and washed with ice-cold 0.9 % (w/v) saline before extraction in 5 % perchloric acid. Precipitated material was removed by centrifugation (13,000 RPM, 3 min) and supernatant neutralised with 1:1 trioctylamine:Freon-113 (Khym, 1975). Nucleotides were separated and quantified by capillary electrophoresis using a Beckman P/ACE instrument as previously described (Hawley, et al., 2010).

With NC(=O)c1ncn([C@@H]2O[C@H](CO)[C@@H](O)[C@H]2O)c1N [AICAR, 5-aminoimidazole-4-carboxamide riboside, reference compound] the “compound-induced phosphorylation of AMPK and ACC” value [1] was “abolished”.
For OO [Compound H2O2], the “ADP:ATP and AMP:ATP ratios” value (mouse hepatocytes) was “increased”.
With N#Cc1c(O)c2c(-c3ccc(-c4ccccc4O)cc3)csc2[nH]c1=O [Compound A769662, reference compound] the suppression of lipogenesis (β1-KO hepatocytes [2]) was “failed to suppress lipogenesis”, the “stimulation of AMPK (Thr172 phosphorylation)” value (β1-KO hepatocytes [3]) was “failed to stimulate” and the “phosphorylation of Thr172 and ACC, as well as Raptor” value (WT and β2-KO hepatocytes) was “robustly stimulated”.
For Nc1ncnc2c1ncn2[C@@H]1O[C@H](COP(=O)(O)OP(=O)(O)O)[C@@H](O)[C@H]1O [ADP, reference compound], the “effect on activation by C2” value (AMPK α1β1γ1) was “antagonized”.
O=C(O)c1ccc2c3c1cccc3c(=O)n1c3ccccc3nc21 [STO-609, reference compound] was tested, and the “phosphorylation of AMPK and ACC by ionomycin after prior incubation” value [4] was “almost completely abolished”.
With O=[N+]([O-])c1ccc(O)c([N+](=O)[O-])c1 [DNP, 2,4-dinitrophenol] the “ADP:ATP and AMP:ATP ratios” value (mouse hepatocytes) was “increased”.
